Patent publication US11767341B2, “Lincosamide antibiotics and uses thereof” (President and Fellows of Harvard College, priority 2017, dated 2023)
≈ marks a conversion by molar mass, not a printed value.

test system: P. aeruginosa ATCC 27853; experiment: MIC determination; assay type: cell-based; details: Pseudomonas aeruginosa, ATCC27853

SMILES	MIC
CSC1O[C@H]([C@H](NC(=O)[C@H]2NC[C@@H]3CC(c4ccccc4)=CCO[C@H]32)[C@H](C)Cl)C(O)[C@@H](O)[C@H]1O (stereo partly shown) [FSA-507056]	> 32 µg/mL
CSC1O[C@H]([C@H](NC(=O)[C@H]2NC[C@@H]3C=C(c4ccc(C(F)(F)F)cc4)CCO[C@@H]23)[C@H](C)Cl)C(O)[C@@H](O)[C@H]1O (stereo partly shown) [FSA-507053]	> 64 µg/mL

test system: S. aureus BAA 977 iErmA; experiment: MIC determination; assay type: cell-based; details: Staphylococcus aureus, BAA977

SMILES	MIC
CSC1O[C@H]([C@H](NC(=O)[C@H]2NC[C@@H]3CC(c4ccccc4)=CCO[C@H]32)[C@H](C)Cl)C(O)[C@@H](O)[C@H]1O (stereo partly shown) [FSA-507056]	1 µg/mL (≈ 1.95 µM)
CSC1O[C@H]([C@H](NC(=O)[C@H]2NC[C@@H]3C=C(c4ccc(C(F)(F)F)cc4)CCO[C@@H]23)[C@H](C)Cl)C(O)[C@@H](O)[C@H]1O (stereo partly shown) [FSA-507053]	0.25 µg/mL (≈ 0.43 µM)

test system: S. pneumoniae MMX 3028 cErmB; experiment: MIC determination; assay type: cell-based; details: Streptococcus pneumoniae, MMX3028CERMB

SMILES	MIC
CSC1O[C@H]([C@H](NC(=O)[C@H]2NC[C@@H]3CC(c4ccccc4)=CCO[C@H]32)[C@H](C)Cl)C(O)[C@@H](O)[C@H]1O (stereo partly shown) [FSA-507056]	> 32 µg/mL

same assay, conditions: Streptococcus pneumoniae, MMX3028CERMB; S. pneumoniae MMX 3028 cErmB; read-out: MIC

SMILES	MIC
CSC1O[C@H]([C@H](NC(=O)[C@H]2NC[C@@H]3C=C(c4ccc(C(F)(F)F)cc4)CCO[C@@H]23)[C@H](C)Cl)C(O)[C@@H](O)[C@H]1O (stereo partly shown) [FSA-507053]	32 µg/mL (≈ 55.1 µM)

test system: E. coli MMX 0121 ΔTolC; experiment: MIC determination; assay type: cell-based; details: Escherichia coli

SMILES	MIC
CSC1O[C@H]([C@H](NC(=O)[C@H]2NC[C@@H]3CC(c4ccccc4)=CCO[C@H]32)[C@H](C)Cl)C(O)[C@@H](O)[C@H]1O (stereo partly shown) [FSA-507056]	> 32 µg/mL
CSC1O[C@H]([C@H](NC(=O)[C@H]2NC[C@@H]3C=C(c4ccc(C(F)(F)F)cc4)CCO[C@@H]23)[C@H](C)Cl)C(O)[C@@H](O)[C@H]1O (stereo partly shown) [FSA-507053]	16 µg/mL (≈ 27.5 µM)

test system: C. difficile BAA 1805; experiment: MIC determination; assay type: cell-based; details: Clostridioides difficile, BAA1805; C. difficile BAA 1805; read-out: MIC

SMILES	MIC
CSC1O[C@H]([C@H](NC(=O)[C@H]2NC[C@@H]3CC(c4ccccc4)=CCO[C@H]32)[C@H](C)Cl)C(O)[C@@H](O)[C@H]1O (stereo partly shown) [FSA-507056]	16 µg/mL (≈ 31.2 µM)
CSC1O[C@H]([C@H](NC(=O)[C@H]2NC[C@@H]3C=C(c4ccc(C(F)(F)F)cc4)CCO[C@@H]23)[C@H](C)Cl)C(O)[C@@H](O)[C@H]1O (stereo partly shown) [FSA-507053]	8 µg/mL (≈ 13.8 µM)

test system: E. coli MMX TolC parent strain; experiment: MIC determination; assay type: cell-based; details: Escherichia coli

SMILES	MIC
CSC1O[C@H]([C@H](NC(=O)[C@H]2NC[C@@H]3CC(c4ccccc4)=CCO[C@H]32)[C@H](C)Cl)C(O)[C@@H](O)[C@H]1O (stereo partly shown) [FSA-507056]	> 32 µg/mL
CSC1O[C@H]([C@H](NC(=O)[C@H]2NC[C@@H]3C=C(c4ccc(C(F)(F)F)cc4)CCO[C@@H]23)[C@H](C)Cl)C(O)[C@@H](O)[C@H]1O (stereo partly shown) [FSA-507053]	> 64 µg/mL

test system: E. faecalis ATCC 29212; experiment: MIC determination; assay type: cell-based; details: Enterococcus faecalis, ATCC29212, read-out: MIC

SMILES	MIC
CSC1O[C@H]([C@H](NC(=O)[C@H]2NC[C@@H]3CC(c4ccccc4)=CCO[C@H]32)[C@H](C)Cl)C(O)[C@@H](O)[C@H]1O (stereo partly shown) [FSA-507056]	2 µg/mL (≈ 3.9 µM)
CSC1O[C@H]([C@H](NC(=O)[C@H]2NC[C@@H]3C=C(c4ccc(C(F)(F)F)cc4)CCO[C@@H]23)[C@H](C)Cl)C(O)[C@@H](O)[C@H]1O (stereo partly shown) [FSA-507053]	2 µg/mL (≈ 3.44 µM)

test system: P. aeruginosa MMX 3476 Δmex; experiment: MIC determination; assay type: cell-based; details: Pseudomonas aeruginosa

SMILES	MIC
CSC1O[C@H]([C@H](NC(=O)[C@H]2NC[C@@H]3CC(c4ccccc4)=CCO[C@H]32)[C@H](C)Cl)C(O)[C@@H](O)[C@H]1O (stereo partly shown) [FSA-507056]	> 32 µg/mL
CSC1O[C@H]([C@H](NC(=O)[C@H]2NC[C@@H]3C=C(c4ccc(C(F)(F)F)cc4)CCO[C@@H]23)[C@H](C)Cl)C(O)[C@@H](O)[C@H]1O (stereo partly shown) [FSA-507053]	> 64 µg/mL

test system: E. coli ATCC 25922; experiment: MIC determination; assay type: cell-based; details: Escherichia coli, ATCC25922

SMILES	MIC
CSC1O[C@H]([C@H](NC(=O)[C@H]2NC[C@@H]3CC(c4ccccc4)=CCO[C@H]32)[C@H](C)Cl)C(O)[C@@H](O)[C@H]1O (stereo partly shown) [FSA-507056]	> 32 µg/mL
CSC1O[C@H]([C@H](NC(=O)[C@H]2NC[C@@H]3C=C(c4ccc(C(F)(F)F)cc4)CCO[C@@H]23)[C@H](C)Cl)C(O)[C@@H](O)[C@H]1O (stereo partly shown) [FSA-507053]	> 64 µg/mL

test system: S. aureus MMX 3035 cErmA; experiment: MIC determination; assay type: cell-based; details: Staphylococcus aureus, MMX3035CERMA

SMILES	MIC
CSC1O[C@H]([C@H](NC(=O)[C@H]2NC[C@@H]3CC(c4ccccc4)=CCO[C@H]32)[C@H](C)Cl)C(O)[C@@H](O)[C@H]1O (stereo partly shown) [FSA-507056]	> 32 µg/mL
CSC1O[C@H]([C@H](NC(=O)[C@H]2NC[C@@H]3C=C(c4ccc(C(F)(F)F)cc4)CCO[C@@H]23)[C@H](C)Cl)C(O)[C@@H](O)[C@H]1O (stereo partly shown) [FSA-507053]	> 64 µg/mL

test system: S. pyogenes ATCC 19615; experiment: MIC determination; assay type: cell-based; details: Streptococcus pyogenes, ATCC19615; S. pyogenes ATCC 19615; read-out: MIC

SMILES	MIC
CSC1O[C@H]([C@H](NC(=O)[C@H]2NC[C@@H]3CC(c4ccccc4)=CCO[C@H]32)[C@H](C)Cl)C(O)[C@@H](O)[C@H]1O (stereo partly shown) [FSA-507056]	0.25 µg/mL (≈ 0.487 µM)
CSC1O[C@H]([C@H](NC(=O)[C@H]2NC[C@@H]3C=C(c4ccc(C(F)(F)F)cc4)CCO[C@@H]23)[C@H](C)Cl)C(O)[C@@H](O)[C@H]1O (stereo partly shown) [FSA-507053]	≤ 0.06 µg/mL

test system: P. aeruginosa MMX Mex parent strain; experiment: MIC determination; assay type: cell-based; details: Pseudomonas aeruginosa

SMILES	MIC
CSC1O[C@H]([C@H](NC(=O)[C@H]2NC[C@@H]3CC(c4ccccc4)=CCO[C@H]32)[C@H](C)Cl)C(O)[C@@H](O)[C@H]1O (stereo partly shown) [FSA-507056]	> 32 µg/mL
CSC1O[C@H]([C@H](NC(=O)[C@H]2NC[C@@H]3C=C(c4ccc(C(F)(F)F)cc4)CCO[C@@H]23)[C@H](C)Cl)C(O)[C@@H](O)[C@H]1O (stereo partly shown) [FSA-507053]	> 64 µg/mL

test system: E. faecalis MMX 847 Macrolide-Resistant; experiment: MIC determination; assay type: cell-based; details: Enterococcus faecalis

SMILES	MIC
CSC1O[C@H]([C@H](NC(=O)[C@H]2NC[C@@H]3CC(c4ccccc4)=CCO[C@H]32)[C@H](C)Cl)C(O)[C@@H](O)[C@H]1O (stereo partly shown) [FSA-507056]	> 32 µg/mL
CSC1O[C@H]([C@H](NC(=O)[C@H]2NC[C@@H]3C=C(c4ccc(C(F)(F)F)cc4)CCO[C@@H]23)[C@H](C)Cl)C(O)[C@@H](O)[C@H]1O (stereo partly shown) [FSA-507053]	> 64 µg/mL

test system: S. aureus ATCC 29213; experiment: MIC determination; assay type: cell-based; details: Staphylococcus aureus, ATCC29213, S. aureus ATCC 29213; read-out: MIC

SMILES	MIC
CSC1O[C@H]([C@H](NC(=O)[C@H]2NC[C@@H]3CC(c4ccccc4)=CCO[C@H]32)[C@H](C)Cl)C(O)[C@@H](O)[C@H]1O (stereo partly shown) [FSA-507056]	1 µg/mL (≈ 1.95 µM)
CSC1O[C@H]([C@H](NC(=O)[C@H]2NC[C@@H]3C=C(c4ccc(C(F)(F)F)cc4)CCO[C@@H]23)[C@H](C)Cl)C(O)[C@@H](O)[C@H]1O (stereo partly shown) [FSA-507053]	0.25 µg/mL (≈ 0.43 µM)

test system: S. pneumoniae ATCC 49619; experiment: MIC determination; assay type: cell-based; details: Streptococcus pneumoniae, ATCC49619; S. pneumoniae ATCC 49619; read-out: MIC

SMILES	MIC
CSC1O[C@H]([C@H](NC(=O)[C@H]2NC[C@@H]3CC(c4ccccc4)=CCO[C@H]32)[C@H](C)Cl)C(O)[C@@H](O)[C@H]1O (stereo partly shown) [FSA-507056]	0.25 µg/mL (≈ 0.487 µM)
CSC1O[C@H]([C@H](NC(=O)[C@H]2NC[C@@H]3C=C(c4ccc(C(F)(F)F)cc4)CCO[C@@H]23)[C@H](C)Cl)C(O)[C@@H](O)[C@H]1O (stereo partly shown) [FSA-507053]	0.25 µg/mL (≈ 0.43 µM)

test system: S. pyogenes MMX 946 Macrolide-Resistant; experiment: MIC determination; assay type: cell-based; details: Streptococcus pyogenes

SMILES	MIC
CSC1O[C@H]([C@H](NC(=O)[C@H]2NC[C@@H]3CC(c4ccccc4)=CCO[C@H]32)[C@H](C)Cl)C(O)[C@@H](O)[C@H]1O (stereo partly shown) [FSA-507056]	> 32 µg/mL

same assay, conditions: Streptococcus pyogenes; S. pyogenes MMX 946 Macrolide-Resistant (MacRes); read-out: MIC

SMILES	MIC
CSC1O[C@H]([C@H](NC(=O)[C@H]2NC[C@@H]3C=C(c4ccc(C(F)(F)F)cc4)CCO[C@@H]23)[C@H](C)Cl)C(O)[C@@H](O)[C@H]1O (stereo partly shown) [FSA-507053]	32 µg/mL (≈ 55.1 µM)

test system: B. fragilis ATCC 25285; experiment: MIC determination; assay type: cell-based; details: Bacteroides fragilis, ATCC25285

SMILES	MIC
CSC1O[C@H]([C@H](NC(=O)[C@H]2NC[C@@H]3CC(c4ccccc4)=CCO[C@H]32)[C@H](C)Cl)C(O)[C@@H](O)[C@H]1O (stereo partly shown) [FSA-507056]	> 32 µg/mL
CSC1O[C@H]([C@H](NC(=O)[C@H]2NC[C@@H]3C=C(c4ccc(C(F)(F)F)cc4)CCO[C@@H]23)[C@H](C)Cl)C(O)[C@@H](O)[C@H]1O (stereo partly shown) [FSA-507053]	16 µg/mL (≈ 27.5 µM)

test system: S. aureus Micromyx USA 300; experiment: MIC determination; assay type: cell-based; details: Staphylococcus aureus, USA300; S. aureus Micromyx USA 300; read-out: MIC

SMILES	MIC
CSC1O[C@H]([C@H](NC(=O)[C@H]2NC[C@@H]3CC(c4ccccc4)=CCO[C@H]32)[C@H](C)Cl)C(O)[C@@H](O)[C@H]1O (stereo partly shown) [FSA-507056]	0.5 µg/mL (≈ 0.975 µM)
CSC1O[C@H]([C@H](NC(=O)[C@H]2NC[C@@H]3C=C(c4ccc(C(F)(F)F)cc4)CCO[C@@H]23)[C@H](C)Cl)C(O)[C@@H](O)[C@H]1O (stereo partly shown) [FSA-507053]	0.12 µg/mL (≈ 0.207 µM)

test system: H. influenzae ATCC 49247; experiment: MIC determination; assay type: cell-based; details: Haemophilus influenzae, ATCC49247

SMILES	MIC
CSC1O[C@H]([C@H](NC(=O)[C@H]2NC[C@@H]3CC(c4ccccc4)=CCO[C@H]32)[C@H](C)Cl)C(O)[C@@H](O)[C@H]1O (stereo partly shown) [FSA-507056]	> 32 µg/mL
CSC1O[C@H]([C@H](NC(=O)[C@H]2NC[C@@H]3C=C(c4ccc(C(F)(F)F)cc4)CCO[C@@H]23)[C@H](C)Cl)C(O)[C@@H](O)[C@H]1O (stereo partly shown) [FSA-507053]	16 µg/mL (≈ 27.5 µM)

test system: S. pneumoniae MMX 3031 cMefA; experiment: MIC determination; assay type: cell-based; details: Streptococcus pneumoniae, MMX3031CMEFA

SMILES	MIC
CSC1O[C@H]([C@H](NC(=O)[C@H]2NC[C@@H]3CC(c4ccccc4)=CCO[C@H]32)[C@H](C)Cl)C(O)[C@@H](O)[C@H]1O (stereo partly shown) [FSA-507056]	0.12 µg/mL (≈ 0.234 µM)
CSC1O[C@H]([C@H](NC(=O)[C@H]2NC[C@@H]3C=C(c4ccc(C(F)(F)F)cc4)CCO[C@@H]23)[C@H](C)Cl)C(O)[C@@H](O)[C@H]1O (stereo partly shown) [FSA-507053]	0.12 µg/mL (≈ 0.207 µM)
